Paper PMC5450916 (Biochemistry, 2010)
“And” between values parts separate entries of the source, which are not always exact repeats. Identical values can stand only once. Like-named read-outs stand apart in the source and are kept apart here.

Key:
[1] = biological target: T1, human indoleamine 2,3-dioxygenase (hIDO) (Homo sapiens, UniProt P14902); assay: Steady-state kinetics of hIDO; type: biochemical
[2] = biological target: T1, human indoleamine 2,3-dioxygenase (hIDO); assay: Equilibrium ligand/substrate titration by optical absorption; type: binding; conditions: ferrous hIDO at 50 μM L-Trp, on the basis of Kd 400 μM
[3] = test system: rabbit indoleamine 2,3-dioxygenase (rIDO); conditions: cited from earlier work
[4] = biological target: T1, human indoleamine 2,3-dioxygenase (hIDO); conditions: cited from earlier work
[5] = biological target: TDO (xcTDO); conditions: read-out: Kd^eq, cited from earlier work
[6] = biological target: rabbit indoleamine 2,3-dioxygenase (rIDO); conditions: read-out: Kd^eq, cited from earlier work
[7] = test system: TDO (xcTDO); conditions: cited from earlier work
[8] = biological target: T1, human indoleamine 2,3-dioxygenase (hIDO); conditions: L-Trp binding to ferric hIDO; cited from earlier work
[9] = biological target: T1, human indoleamine 2,3-dioxygenase (hIDO); assay: Stopped-flow binding kinetics

T1 sequence (P14902 whole entry): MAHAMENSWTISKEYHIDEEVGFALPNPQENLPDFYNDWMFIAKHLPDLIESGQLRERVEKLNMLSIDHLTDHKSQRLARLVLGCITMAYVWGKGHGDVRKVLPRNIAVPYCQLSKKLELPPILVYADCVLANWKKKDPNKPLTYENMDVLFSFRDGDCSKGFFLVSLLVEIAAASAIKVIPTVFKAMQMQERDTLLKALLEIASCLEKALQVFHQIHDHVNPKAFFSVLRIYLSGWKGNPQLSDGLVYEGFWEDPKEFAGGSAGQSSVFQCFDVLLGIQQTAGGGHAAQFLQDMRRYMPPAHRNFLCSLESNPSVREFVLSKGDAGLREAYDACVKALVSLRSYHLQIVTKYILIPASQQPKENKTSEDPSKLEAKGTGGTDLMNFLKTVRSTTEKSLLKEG

With `N[C@@H](Cc1c[nH]c2ccccc12)C(=O)O` [L-Trp, L-Tryptophan] the “Km of L-Trp lower than Kd of L-Trp” value ([1]; Km (15 μM) vs Kd (0.4 mM) of ligand-free ferrous hIDO) was ~ 27 fold and 27 fold, the “Km lower than Kd (L-Trp)” value ([1]; Km (~15 μM) vs literature Kd (0.53 mM) of ligand-free hIDO) was ~ 40 fold and the “enzyme in the substrate-bound form” value [2] was ~ 5%. The Km [3] was 12 µM, the “self-inhibition (substrate inhibition) constant Ksi” value ([4]; hIDO steady-state turnover) was 0.17 mM and the Km ([4]; read-out: Km of L-Trp, hIDO steady-state reactions) was 15 ± 2 µM. For the same compound, the Kd ([5]; TDO Fe^2+ + Trp) was 4.12 µM, the Kd ([5]; TDO Fe^3+ + Trp) was 3800 µM and the Kd ([6]; rIDO Fe^2+ + Trp) was 13 µM. For the same compound, the Kd ([6]; rIDO Fe^3+ + Trp, ref 16) was 5800 µM, the Kd ([6]; rIDO Fe^3+ + Trp, ref 35) was 30000 µM and the Kd ([6]; rIDO Fe^3+–CN^− + Trp, ref 34) was 10 to 20 µM. For the same compound, the Kd ([6]; rIDO Fe^3+–CN^− + Trp, ref 35) was 16 µM, the Km [7] was 114 µM and the “kon, previously published” value [8] was 1.55e+10 M⁻¹ s⁻¹. The Kd ([9]; Fe^3+ + Trp, calculated from kinetic constants) was 1000 µM, the Kd ([9]; Fe^3+–CN^− + Trp, calculated from koff/kon) was 23 µM and the “binding of L-Trp to the second binding site” value ([9]; cyanide-bound ferric hIDO, higher L-Trp concentrations, stopped-flow) was “too fast to be measured”. The “ΔΔG of L-Trp binding” value ([9]; effect of prebinding of cyanide, tighter substrate binding) was -2.3 kcal/mol, the “retardation of L-Trp dissociation by prebinding of cyanide” value ([9]; koff, cyanide-bound vs ligand-free ferric hIDO) was 2 fold and the “facilitation of L-Trp binding by prebinding of cyanide” value ([9]; kon, cyanide-bound vs ligand-free ferric hIDO) was ~ 22 fold and 22 fold. It also gave an observed rate constant ([9]; ligand-free ferric hIDO with 0.75 mM L-Trp, trace at 403 nm, 20 °C) of 10 s⁻¹.
